Laboratory results from patent publication US8293979B2, “Weed controller metabolism proteins, genes, thereof and use of the same” (Sumitomo Chemical Company, Limited, priority 2001, dated 2012).

Assays:
[1] = test system: present invention protein (A1); assay type: in vitro ADME, Streptomyces phaeochromogenes IFO12898; settings: E. coli JM109/pKSN657F cell suspension, compound at 100 ppm, shaking at 30° C., ethyl acetate layer, HPLC
Description: E. coli JM109/pKSN657F was cultured overnight at 37° C. in 3 ml of TB medium containing 50 μg/ml of ampicillin. A milliliter (1 ml) of the obtained culture medium was transferred to 100 ml of TB medium containing 50 μg/ml of ampicillin and cultured at 26° C. When OD660 reached about 0.5, 5-aminolevulinic acid was added to the final concentration of 500 μM, and the culturing was continued. Thirty (30) minutes thereafter, IPTG was added to a final concentration of 1 mM, and there was further culturing for 20 hours.
The cells were recovered from the culture medium, washed with 0.1M tris-HCl buffer (pH7.5) and suspended in 10 ml of 0.1M Tris-HCl buffer containing 1% glucose. Compound (VI) was added to the obtained cell suspension to a final concentration of 100 ppm and that was incubated with shaking at 30° C. At each of 0 hours after and 1 day after the start of shaking, 2 ml of the cell suspension were fractioned. Fifty microliters (50 μl) of 2N HCl were added to each and those were extracted with 2 ml of ethyl acetate. The obtained ethyl acetate layers were analyzed on a HPLC under reaction condition 1. Compared to the concentration of compound (VI) detected from the ethyl acetate layer prepared from the cell suspension at 0 hours after the start of shaking, the concentration of compound (VI) detected from the ethyl acetate later prepared from the cell suspension at 1 day after the start of shaking was lower. Further a peak, which was not detected from the ethyl acetate layer prepared from the cell suspension at 0 hours after the start of shaking, was detected from the ethyl acetate layer prepared from the cell suspension at 1 day after the start of shaking Mass spectrometry of the compound contained in said peak was conducted. […]
Other than utilizing compound (VIII) instead of compound (VI), there was conducted in accordance with the method described in Example 41(6), a culturing of E. coli JM109/pKSN657F, preparation of the cell suspension solution, incubation with shaking of the cell suspension solution to which compound (VIII) was added, reagent preparation from the cell suspension solution and HPLC analysis of the reagents. Compared to the concentration of compound (VIII) detected from the ethyl acetate layer prepared from the cell suspension at 0 hours after the start of shaking, the concentration of compound (VIII) detected from the ethyl acetate layer prepared from the cell suspension at 1 day after the start of shaking was lower. Further two peaks, which were not detected from the ethyl acetate layer prepared from the cell suspension at 0 hours after the start of shaking, were detected from the ethyl acetate layer prepared from the cell suspension at 1 day after the start of shaking Mass spectrometry of the compounds contained in said peaks were conducted. […]

[2] = test system: present invention protein (A1); assay: Metabolism of compounds by the present invention protein (A1), reaction solution, HPLC; assay type: in vitro ADME, Streptomyces phaeochromogenes IFO12898; settings: 12.5 ppm of compound, components A, B, C, 20 μl supernatant fraction of Example 4(2), 30° C. for 10 minutes
Description: There was prepared 100 μl of a reaction solution of 50 mM potassium phosphate buffer (pH7.0) containing 5 ppm of compound (XII), 3 mM of […] (hereinafter, referred to as “component A”) (Oriental Yeast Company), 1 mg/ml of a ferredoxin derived from spinach (hereinafter referred to as “component B”) (Sigma Company), 0.15 U/ml of ferredoxin reductase (hereinafter, referred to as “component C”) (Sigma Company) and 20 μl of the supernatant fraction recovered in Example 4(2). The reaction solution was maintained at 30° C. for 10 minutes. Further, there was prepared and maintained similarly 100 μl of a reaction solution of a 50 mM potassium phosphate buffer (pH 7.0) having no addition of at least one component utilized in the composition of the above reaction solution, selected from component A, component B, component C and the supernatant fraction prepared in Example 4(2). Ten microliters (10 μl) of 2N HCl and 500 μl of ethyl acetate were added and mixed into each of the reaction solutions after the maintenance. The resulting reaction solutions were centrifuged at 8,000×g to recover 490 μl of the ethyl acetate layer. After drying the ethyl acetate layers under reduced pressure, the residue was dissolved in 100 μl of 50 mM of potassium phosphate buffer (pH7.0). Forty microliters (40 μl) of the fraction solutions (hereinafter, the fraction solution derived from the reaction solution containing component A, component B, component C and 20 μl of supernatant fraction recovered in Example 4(2) is referred to as “(XII) metabolism solution (A1);” further, the fraction solution derived from the reaction solution containing no component A, no component B, no component C and no supernatant fraction recovered in Example 4(2) is referred to as “(XII) control solution (A1)”) were analyzed on a HPLC. Compared to the concentration of compound (XII) detected from (XII) control solution (A1), the concentration of compound (XII) detected from (XII) metabolism solution (A1) was lower. Further a peak, which was not detected from the (XII) control solution (A1), was detected from the (XII) metabolism solution (A1). Mass spectrometry was conducted for the compound contained in such a peak. The mass of the compound contained in such a peak was 14 smaller than the mass of compound (XII).
Other than utilizing 5 ppm of compound (XIII) instead of 5 ppm of compound (XII), reaction solutions were prepared and maintained similarly to the method described in Example 41(2). […] Compared to the concentration of compound (XIII) detected from (XIII) control solution (A1), the concentration of compound (XIII) detected from (XIII) metabolism solution (A1) was lower. Further a peak, which was not detected from the (XIII) control solution (A1), was detected from the (XIII) metabolism solution (A1). […]

[3] = test system: present invention protein (A11); assay: Metabolism of compounds by the present invention protein (A11), reaction solution, HPLC; assay type: in vitro ADME, Streptomyces nogalator IFO13445; settings: 12.5 ppm of compound, components A, B, C, 20 μl supernatant fraction of Example 32(2), 30° C. for 10 minutes
Description: There was prepared 100 μl of a reaction solution of 50 mM potassium phosphate buffer (pH7.0) containing 5 ppm of compound (XII), 3 mM of […] (hereinafter, referred to as “component A”) (Oriental Yeast Company), 1 mg/ml of a ferredoxin derived from spinach (hereinafter referred to as “component B”) (Sigma Company), 0.15 U/ml of ferredoxin reductase (hereinafter, referred to as “component C”) (Sigma Company) and 20 μl of the supernatant fraction recovered in Example 4(2). The reaction solution was maintained at 30° C. for 10 minutes. Further, there was prepared and maintained similarly 100 μl of a reaction solution of a 50 mM potassium phosphate buffer (pH 7.0) having no addition of at least one component utilized in the composition of the above reaction solution, selected from component A, component B, component C and the supernatant fraction prepared in Example 4(2). Ten microliters (10 μl) of 2N HCl and 500 μl of ethyl acetate were added and mixed into each of the reaction solutions after the maintenance. The resulting reaction solutions were centrifuged at 8,000×g to recover 490 μl of the ethyl acetate layer. After drying the ethyl acetate layers under reduced pressure, the residue was dissolved in 100 μl of 50 mM of potassium phosphate buffer (pH7.0). Forty microliters (40 μl) of the fraction solutions (hereinafter, the fraction solution derived from the reaction solution containing component A, component B, component C and 20 μl of supernatant fraction recovered in Example 4(2) is referred to as “(XII) metabolism solution (A1);” further, the fraction solution derived from the reaction solution containing no component A, no component B, no component C and no supernatant fraction recovered in Example 4(2) is referred to as “(XII) control solution (A1)”) were analyzed on a HPLC. Compared to the concentration of compound (XII) detected from (XII) control solution (A1), the concentration of compound (XII) detected from (XII) metabolism solution (A1) was lower. Further a peak, which was not detected from the (XII) control solution (A1), was detected from the (XII) metabolism solution (A1). Mass spectrometry was conducted for the compound contained in such a peak. […]
Other than utilizing 20 μl of the supernatant fraction recovered in Example 32(2) instead of 20 μl of the supernatant fraction recovered in Example 4(2), the reaction solutions were prepared and maintained in accordance with the method described in Example 41(2). […] Compared to the concentration of compound (XII) detected from (XII) control solution (A11), the concentration of compound (XII) detected from (XII) metabolism solution (A11) was lower. Further a peak, which was not detected from the (XII) control solution (A11), was detected from the (XII) metabolism solution (A11). […]

SMILES	concentration of the compound detected from the cell suspension at 1 day compared to 0 hours after the start of shaking [1]	concentration of the compound detected from metabolism solution (A1) compared to control solution (A1) [2]	concentration of the compound detected from metabolism solution (A11) compared to control solution (A11) [3]
COC(=O)C1(C)Cc2c(c(Cl)cc(F)c2-n2c(=O)cc(C(F)(F)F)n(C)c2=O)O1 (stereo not shown) [compound (VIII)]	lower	–	–
CCc1ccc(COc2ccc(-n3c(=O)cc(C(F)(F)F)n(C)c3=O)cc2)c(OC(C)C(=O)OC)c1 (stereo not shown) [compound (VI)]	lower	–	–
COC(=O)CO/C(C)=C(/Oc1cc(-n2c(=O)cc(C(F)(F)F)n(C)c2=O)c(F)cc1Cl)C(=O)O [compound (XVI)]	–	lower	lower
Cn1c(C(F)(F)F)cc(=O)n(-c2c(F)cc(Cl)c3oc(C(=O)O)cc23)c1=O [compound (XVII)]	–	lower	lower
C#CCN1C(=O)COc2ccc(-n3c(=O)cc(C(F)(F)F)n(C)c3=O)cc21 [compound (XI)]	lower	–	–
